# Source: patent US20260209152A1, “Substituted Hydroxystilbene Compounds and Derivatives, Synthesis and Uses Thereof” (Kynan Duke IP, LLC, priority 2019, published 2026)
# Columns and labels:
# Format in all cases: cell-based, human
# Bladder UMUC_3 = assay: CellTiter Glo cell viability assay; settings: Homo sapiens, UMUC3; UM-UC-3/CRL-1749; 11 dilutions 3-0.00001 μM; read-out: IC50
# Description: (§1) 1.7*10^3 cells/well were seeded in quadruplicates in 96-well plate after plating. Drugs were added at 5 μM and 2-fold dilutions over 18 concentrations (0.000038146-5 […] range) to generate a dose-response curve. Cell growth was assessed on day 1, 3 and 5 after drug treatments using the CellTiter Glo Luminescence Cell Viability Assay (Promega) according to manufacturer's protocol. Thermo Scientific Varioskan LUX Multimode Microplate instrument was used for plate reading. Data are expressed as mean luminescence (arbitrary units) ±S.D.
# (§2) Cell Viability Assays were employed to determine the concentration of Compound 1 (KYN-001) and analogues where the response is reduced by half. For each treatment of cancer cells, 1, 2, 5, 10 and 20 μM solutions of compounds were applied. GraphPad Prism 7 software was used to fit dose response curves. Relative Luminescence Units were plotted against the log values of the doses used and the nonlinear regression model was used for data analysis.
# (§3) The protocol for cell proliferation was optimized for Compound 8 (KYN-119) to enable a more accurate assessment of its low IC50 value. In this protocol, 18 dosages (2 fold dilutions ranging from 0.000038146 to 5 μM) were applied to cells seeded in 96-well plates, and Luminescence was measured after 1, 3 and 5 days upon treatments.
# Tongue CAL 27 = assay: CellTiter Glo cell viability assay; settings: Homo sapiens; CAL 27/CRL-2095; 11 dilutions 3-0.00001 μM; read-out: IC50
# Description: as §1, §2, §3
# Lung NCI-H1573 = assay: CellTiter Glo cell viability assay; settings: Homo sapiens; NCI-H1573/CRL-5877; 11 dilutions 3-0.00001 μM; read-out: IC50
# Description: as §1, §2, §3
# Pharynx DETROIT = assay: CellTiter Glo cell viability assay; settings: Homo sapiens; Detroit 562/CCL-138; 11 dilutions 3-0.00001 μM; read-out: IC50
# Description: as §1, §2, §3
# Kidney Caki-2 = assay: CellTiter Glo cell viability assay; settings: Homo sapiens; Caki-2/HTB-47; 11 dilutions 3-0.00001 μM; read-out: IC50
# Description: as §1, §2, §3
# Lung NCI-H1563 = assay: CellTiter Glo cell viability assay; settings: Homo sapiens; NCI-H1563/CRL-5875; 11 dilutions 3-0.00001 μM; read-out: IC50
# Description: as §1, §2, §3
# Osteosarcomas SAOS-2 = assay: CellTiter Glo cell viability assay; settings: Homo sapiens; Saos-2/HTB-85; 11 dilutions 3-0.00001 μM; read-out: IC50
# Description: as §1, §2, §3
# Bladder T24 = assay: CellTiter Glo cell viability assay; settings: Homo sapiens; T24/HTB-4; 11 dilutions 3-0.00001 μM; read-out: IC50
# Description: as §1, §2, §3
# Tongue UPCI: SCC090 = assay: CellTiter Glo cell viability assay; settings: Homo sapiens; UPCI: SCC090/CRL-3239; 11 dilutions 3-0.00001 μM; read-out: IC50
# Description: as §1, §2, §3
# Pancreatic PANC-1 = assay: CellTiter Glo cell viability assay; settings: Homo sapiens; PANC-1/CRL-1469; 11 dilutions 3-0.00001 μM; read-out: IC50
# Description: as §1, §2, §3
# Lung NCI-H2126 = assay: CellTiter Glo cell viability assay; settings: Homo sapiens; NCI-H2126/CCL-256; 11 dilutions 3-0.00001 μM; read-out: IC50
# Description: as §1, §2, §3
# Liver HepG2 = assay: CellTiter Glo cell viability assay; settings: Homo sapiens, HepG2; Hep G2/HB-8065; 11 dilutions 3-0.00001 μM; read-out: IC50
# Description: as §1, §2, §3
# Kidney Caki-1 = assay: CellTiter Glo cell viability assay; settings: Homo sapiens; Caki-1/HTB-46; 11 dilutions 3-0.00001 μM; read-out: IC50
# Description: as §1, §2, §3
# Tongue SCC-4 = assay: CellTiter Glo cell viability assay; settings: Homo sapiens; SCC-4/CRL-1624; 11 dilutions 3-0.00001 μM; read-out: IC50
# Description: as §1, §2, §3
# Bladder SCABER = assay: CellTiter Glo cell viability assay; settings: Homo sapiens; SCaBER/HTB-3; 11 dilutions 3-0.00001 μM; read-out: IC50
# Description: as §1, §2, §3
# Liver SNU-398 = assay: CellTiter Glo cell viability assay; settings: Homo sapiens; SNU-398/CRL-2233; 11 dilutions 3-0.00001 μM; read-out: IC50
# Description: as §1, §2, §3
# [1] = test system: Hypo-pharynx UPCI: SCC152; assay: CellTiter Glo cell viability assay; settings: Homo sapiens; UPCI: SCC152/CRL-3240; 11 dilutions 3-0.00001 μM; read-out: IC50
# Description: as §1, §2, §3
# Rhabomyosarcoma TE 159.T = assay: CellTiter Glo cell viability assay; settings: Homo sapiens; TE 159.T/CRL-7752; 11 dilutions 3-0.00001 μM; read-out: IC50
# Description: as §1, §2, §3
# [2] = test system: Cancer cells including pancreatic, bladder, kidney, colon, breast, lung, liver and osteosarcomas; assay: CellTiter Glo cell viability assay, panel of cancer cell lines; settings: SAR discussion based on IC50 values in Tables 1 to 5; compared with 1 [KYN-001]
# Outline: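 Cells (1.7*10^3/well) were seeded in quadruplicate and treated with 2-fold dilutions over 18 concentrations up to 5 μM, or with 1, 2, 5, 10 and 20 μM. Viability was read by CellTiter Glo luminescence on days 1, 3 and 5; half-maximal concentrations came from nonlinear regression of RLU versus log dose.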
IC50 (Lung NCI-H1573) [nM],IC50 (Lung NCI-H1563) [nM],IC50 (Bladder T24) [nM],IC50 (Pancreatic PANC-1) [nM],IC50 (Lung NCI-H2126) [nM],IC50 (Liver HepG2) [nM],IC50 (Liver SNU-398) [nM],SMILES,IC50 (Bladder UMUC_3) [nM],IC50 (Tongue CAL 27) [nM],IC50 (Pharynx DETROIT) [nM],IC50 (Kidney Caki-2) [nM],IC50 (Osteosarcomas SAOS-2) [nM],IC50 (Tongue UPCI: SCC090) [nM],IC50 (Kidney Caki-1) [nM],IC50 (Tongue SCC-4) [nM],IC50 (Bladder SCABER) [nM],IC50 [1] [nM],IC50 (Rhabomyosarcoma TE 159.T) [nM],"Cancer cell viability inhibition, statement in words [2]"
55.8,74.1,111,41.6,97,234,110,"CCOc1cc(O)cc(/C=C/c2ccc(O)c(O)c2)c1CC=C(C)C [Compound 20, (E)-4-(3-Ethoxy-5-hydroxy-2-(3-methylbut-2-en-1-yl)styryl)benzene-1,2-diol]",126,40.9,122,302,129,47.8,96.3,31.3,53.7,149,,
21.2,15.9,22.1,17.8,10.7,99.1,32.7,"CCOc1cc(O)cc(/C=C/c2ccc(NC=O)c(OC)c2)c1CC=C(C)C [Compound 28, (E)-N-(4-(3-Ethoxy-5-hydroxy-2-(3-methylbut-2-en-1-yl)styryl)-2-methoxyphenyl)formamide]",21.3,5,11.4,69.8,23.3,56.1,7.2,3.1,6,20.5,,much enhanced inhibition

SMILES,IC50 (Lung NCI-H1573) [nM],IC50 (Lung NCI-H1563) [nM],IC50 (Bladder T24) [nM],IC50 (Pancreatic PANC-1) [nM],IC50 (Lung NCI-H2126) [nM],IC50 (Liver HepG2) [nM],IC50 (Liver SNU-398) [nM],IC50 (Bladder UMUC_3) [nM],IC50 (Tongue CAL 27) [nM],IC50 (Pharynx DETROIT) [nM],IC50 (Kidney Caki-2) [nM],IC50 (Osteosarcomas SAOS-2) [nM],IC50 (Tongue UPCI: SCC090) [nM],IC50 (Kidney Caki-1) [nM],IC50 (Tongue SCC-4) [nM],IC50 (Bladder SCABER) [nM],IC50 [1] [nM],IC50 (Rhabomyosarcoma TE 159.T) [nM],"Cancer cell viability inhibition, statement in words [2]"
"COc1cc(/C=C/c2cc(O)cc(OC)c2CC=C(C)C)ccc1NC=O [Compound 27, (E)-N-(4-(5-hydroxy-3-methoxy-2-(3-methylbut-2-en-1-yl)styryl)-2-methoxyphenyl)formamide]",48,59.8,32.5,28.8,31,251,54,30.2,15,20.3,1550,42.4,20,15.4,11.4,10.9,36.6,31,
